From PubChem BioAssay AID1918935 (Molecular Pharmacology Branch, DTP, NCI, 2023) come the findings set out here.

pIC50: −log10 of the molar value. “And” between values parts separate entries of the source, which are not always exact repeats. Equal entries are not always repeated. A value given as a limit tells only on which side of the number the result lay.

In general, viability, T/C refers to the ratio of treated to control. What is called pIC50 is the negative decadic logarithm of the IC50, by convention in mol/L.

In the assay the test system is 324938-238-R-J1-PDC complex spheroid viability. In words: Anticancer human tumor 324938-238-R-J1-PDC patient-derived bladder carcinoma cell line growth inhibition. Conditions: for viability, T/C: stronger effect = lower value; for pIC50: curve of compound. The source says:
Multicellular complex tumor spheroid response to LSD1 Inhibitor Iadademstat in combination with a variety of drugs and investigational agents in selected tumor cell lines
The current study was undertaken to assess response to LSD1 inhibitors in combination with standard-of-care drugs and investigational agents in solid tumor complex spheroid models as well as in the K-562 leukemia. Complex spheroids include a stromal component modeled by human endothelial cells (HUVEC) and fibroblasts modeled by human mesenchymal stem cells (MSCs). The concentration ranges selected for each drug and investigational agent were based upon clinically achievable concentrations if the clinical Cmax of the agent was known.
Compounds. The drugs and investigational agents used in this study are listed on Table 1. All of the agents used, including staurosporine (NSC755774) and gemcitabine (NSC613327), were obtained from the Developmental Therapeutics Program, NCI. FDA-approved anticancer drugs are available from the NCI at http://dtp.nci.nih.gov/branches/dscb/oncology_drugset_explanation.html. Drugs and investigational agents were >95% pure by proton nuclear magnetic resonance (NMR) and liquid chromatography/mass spectrometry (LC/MS). Stock solutions were prepared at 400x in DMSO, stored at -70 degrees C, and diluted in fresh medium prior to their use. The final concentration of DMSO in cell culture wells never exceeded 0.25% (v/v). The FDA-approved anticancer drug set is available from the Developmental Therapeutics Program at https://dtp.cancer.gov/organization/dscb/obtaining/available_plates.htm. All drugs and investigational agents were tested over a range starting from a high concentration at or near the clinical Cmax and decreasing in half-log increments. If the clinical Cmax for an agent had not been determined, the highest concentration tested was 10 microM.
Cell Lines. The patient-derived cancer cell (PDC) lines: 292921-168-R-J2-PDC, K24384-001-R-PDC, and 521955-158-R2-J5-PDC pancreatic carcinomas, 556581-035-R-J1 ovarian carcinoma, 324938-238-R-J1-PDC, 855422-203-R-J1-PDC and 883617-216-R-J1-PDC urothelial bladder carcinomas, 743489-274-T-PDC renal cell carcinoma, 138582-R-J1 Merkel cell tumor, K60290-347-R-J1 and K57222-313-R-J1-PDC glioblastomas, 653999-131-R-J2-PDC, LG0703-F948-PDC, and 349418-098-R-PDC non-small cell lung carcinomas, 885512-296-R-J2-PDC, 171881-019-R-J1-PDC breast carcinomas and 186277-243-T-J2-PDC and 233499-124-R-J2-PDC colon carcinomas were obtained from the NCI Patient-Derived Models Repository (PDMR, https://pdmr.cancer.gov). The established cell lines NCI/ADR-RES (RRID:CVCL_14520 and OVCAR-5 (RRID:CVCL_1628) ovarian carcinomas, 786-O (RRID:CVCL_1051) and A498 (RRID:CVCL_A498) renal cell carcinoma, NCI-H211 (ATCC, cat. CRL-5824; RRID:CVCL_1529), NCI-H196 (ATCC, cat. CRL-5823, RRID:CVCL_1509), SW 1271 (ATCC, cat. CRL-2177, RRID:CVCL_1716) and NCI-H1876 (ATCC, cat. CRL-5902, RRID:CVCL_1503) small cell lung carcinomas, MDA-MB-231 (RRID:CVCL_0062) and MDA-MB-468 (RRID:CVCL_0419)breast carcinomas (10-12). Pooled donor human umbilical vein endothelial cells (HUVEC, Lonza, cat. CC-2519) and human mesenchymal stem cells (hMSC, Lonza, cat. PT-2501) were purchased from Lonza (Walkersville, MD).
Cell Culture. All cells were maintained in an incubator at 37 degrees C and 5% CO2 with 95% humidity. The PDC lines were cultured according to standard operating procedures established by the NCI PDMR (https://pdmr.cancer.gov). Briefly all PDCs were thawed and cultured in Matrigel-coated flasks prepared with a working solution of 1X Ham's F-12 nutrient mix, without supplementation (Invitrogen, Waltham, MA, cat. 11765054), 100 U/mL penicillin-streptomycin (Invitrogen, cat. 15140122), and 2.5% Matrigel (Corning Inc., Corning, NY, cat. 354248) for the first three passages. […]
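Further: spheroids also contain HUVEC and human MSCs and agents combined with iadademstat; spheroids exposed to agents for 7 days before readout.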

Take `CC(C)CC(NC(=O)C(Cc1ccccc1)NC(=O)c1cnccn1)B(O)O` (configuration not stated): the pIC50 is 9.19 and 9.29. The viability, T/C (compound 0.000316 µM) was 95.8% and 79.7%. Moreover, the viability, T/C (compound 0.001 µM) was 21.5% and 7.74%. Further, under “compound 0.00316 µM”, the viability, T/C was 0.55% and 0.19%. Besides, the viability, T/C (compound 0.01 µM) is 0.21% and 1.23%. For the same molecule, the viability, T/C (compound 0.0316 µM) is 0.46% and 0.17%. Further, for the setting “compound 0.1 µM”, the viability, T/C is 0.24% and 0.28%.

In the case of `CC(C)CC(NC(=O)CNC(=O)c1cc(Cl)ccc1Cl)B1OC(=O)CC(CC(=O)O)(C(=O)O)O1` (configuration not stated), the negative-log IC50 (pIC50) is 8.59 and 8.75. Besides, the viability, T/C (compound 0.000316 µM) is 104% and 111%. Where the note is “compound 0.001 µM”, the viability, T/C is 106% and 77.7%. For the same molecule, the viability, T/C (compound 0.00316 µM) was 38.2% and 23.3%. Under “compound 0.01 µM”, the viability, T/C was 5.09% and 2.42%. Besides, the viability, T/C (compound 0.0316 µM) was 0.23% and 0.77%. For the same molecule, for the setting “compound 0.1 µM”, the viability, T/C is 0.23% and 0.24%.

In the case of `CC1COCCN1c1cc(-c2ccnn2C)c2ccnc(-c3ccn[nH]3)c2n1` (configuration not stated), the pIC50 was 7.29 and 7.51. For the same molecule, the viability, T/C (compound 0.00316 µM) was 101%. The viability, T/C (compound 0.01 µM) was 103% and 83.1%. The viability, T/C (compound 0.0316 µM) is 60.4% and 48.2%. Moreover, for the setting “compound 0.1 µM”, the viability, T/C was 33.5% and 25.6%. Under “compound 0.316 µM”, the viability, T/C was 18.6% and 14.7%. In addition, for the setting “compound 1 µM”, the viability, T/C is 13.1% and 10.3%.

Turning to `CC[C@@]1(O)C(=O)OCc2c1cc1n(c2=O)Cc2cc3c(CN(C)C)c(O)ccc3nc2-1`, the negative-log IC50 (pIC50) is 8.65 and 8.70. Further, under “compound 0.000316 µM”, the viability, T/C was 101% and 94.5%. The viability, T/C (compound 0.001 µM) is 93% and 83.5%. In addition, the viability, T/C (compound 0.00316 µM) was 31.2% and 27.9%. Besides, under “compound 0.01 µM”, the viability, T/C is 8.43% and 7.17%. For the same molecule, where the note is “compound 0.0316 µM”, the viability, T/C is 8.29% and 8.05%. In addition, the viability, T/C (compound 0.1 µM) is 8.03% and 7.71%.

On to `CCc1c2c(nc3ccc(O)cc13)-c1cc3c(c(=O)n1C2)COC(=O)[C@]3(O)CC`, for which the pIC50 was above 9.02. Moreover, where the note is “compound 0.000949 µM”, the viability, T/C was 7.99% and 9.82%. Further, the viability, T/C (compound 0.003 µM) is 9.25% and 10.8%. Moreover, where the note is “compound 0.00949 µM”, the viability, T/C was 6.79% and 6.81%. Moreover, the viability, T/C (compound 0.03 µM) is 2.02% and 1.48%. For the same molecule, the viability, T/C (compound 0.0949 µM) is 0.16% and 0.66%. Moreover, the viability, T/C (compound 0.3 µM) is 0.2% and 0.27%.

As to `COc1cc(Nc2ncc3c(n2)-c2ccc(Cl)cc2C(c2c(F)cccc2OC)=NC3)ccc1C(=O)O`, the negative-log IC50 (pIC50) is 7.67 and 7.86. Moreover, the viability, T/C (compound 0.00316 µM) is 91.2% and 90.6%. In addition, under “compound 0.01 µM”, the viability, T/C was 76.9% and 59%. For the same molecule, under “compound 0.0316 µM”, the viability, T/C was 35.7% and 26.8%. Besides, under “compound 0.1 µM”, the viability, T/C was 19.6% and 15.6%. Also, the viability, T/C (compound 0.316 µM) is 18.6% and 13.9%. Moreover, the viability, T/C (compound 1 µM) was 15.3% and 14.3%.

With `Cn1ncnc1C1c2n[nH]c(=O)c3cc(F)cc(c23)NC1c1ccc(F)cc1` (configuration not stated), the negative logarithm of the IC50 (pIC50) was below 7.00. Further, under “compound 0.000316 µM”, the viability, T/C is 99.3% and 106%. Further, the viability, T/C (compound 0.001 µM) is 102% and 99.5%. Further, under “compound 0.00316 µM”, the viability, T/C was 99.7% and 90.2%. The viability, T/C (compound 0.01 µM) was 92.3% and 94.8%. Moreover, the viability, T/C (compound 0.0316 µM) was 82.6% and 76%. For the setting “compound 0.1 µM”, the viability, T/C is 68.6% and 58.2%.

Take `Nc1ccn(C2OC(CO)C(O)C2(F)F)c(=O)n1` (configuration not stated): the pIC50 was above 9.02. For the same molecule, the viability, T/C (compound 0.000949 µM) is 11.4% and 15.4%. Also, the viability, T/C (compound 0.003 µM) is 8.21% and 9.09%. Where the note is “compound 0.00949 µM”, the viability, T/C is 7.58% and 8.65%. In addition, under “compound 0.03 µM”, the viability, T/C is 6.97% and 8.11%. For the same molecule, the viability, T/C (compound 0.0949 µM) is 5.95% and 6.14%. In addition, where the note is “compound 0.3 µM”, the viability, T/C was 5.04% and 6.97%.

Take `Nc1ncn(C2CC(O)C(CO)O2)c(=O)n1` (configuration not stated): the negative-log IC50 (pIC50) is 6.03 and 6.14. The viability, T/C (compound 0.00316 µM) was 98.2% and 98.1%. The viability, T/C (compound 0.01 µM) is 90.8% and 96.7%. In addition, under “compound 0.0316 µM”, the viability, T/C is 81% and 89.9%. Moreover, the viability, T/C (compound 0.1 µM) was 75.9% and 69.5%. The viability, T/C (compound 0.316 µM) is 62.2% and 57.2%. The viability, T/C (compound 1 µM) is 48.6% and 46.9%.

As to `Nc1ncn(C2CC(O)C(CO)S2)c(=O)n1` (configuration not stated), the pIC50 was 7.48 and 7.61. Also, the viability, T/C (compound 0.000949 µM) is 97.4% and 106%. Also, the viability, T/C (compound 0.003 µM) is 88.2% and 90.7%. Besides, the viability, T/C (compound 0.00949 µM) is 72.2% and 69.6%. Under “compound 0.03 µM”, the viability, T/C is 51.5% and 46.5%. Further, the viability, T/C (compound 0.0949 µM) is 33.2% and 27.5%. For the same molecule, the viability, T/C (compound 0.3 µM) was 22.2% and 17.4%.

With `O=C(C=Cn1cnc(-c2cc(C(F)(F)F)cc(C(F)(F)F)c2)n1)NNc1cnccn1`, the pIC50 is 8.07 and 8.33. Also, the viability, T/C (compound 0.00316 µM) was 85.4% and 60.8%. For the same molecule, the viability, T/C (compound 0.01 µM) was 44.7% and 28.6%. For the same molecule, the viability, T/C (compound 0.0316 µM) was 17.7% and 14.8%. The viability, T/C (compound 0.1 µM) was 7.73% and 4.52%. Besides, where the note is “compound 0.316 µM”, the viability, T/C was 4.23% and 3.45%. Where the note is “compound 1 µM”, the viability, T/C is 2.35% and 1.64%.
